Source: US20230174507A1, “IMIDAZOLE 3-OXIDE DERIVATIVE BASED ACSS2 INHIBITORS AND METHODS OF USE THEREOF” (METABOMED LTD., priority 2020, published 2023)

Assays:
human ACSS2 protein = molecular target: T1, human ACSS2 protein (Homo sapiens, UniProt Q9NR19); test: ACSS2 cell-free activity assay (pyrophosphatase-coupled, Biomol green); conditions: 10 nM human ACSS2, 90 minutes at 37 C, absorbance at 620 nm; read-out: ACSS2 Biochemical IC50
T1 construct: purchased OriGene Technologies, Inc
Experimental: ACSS2 Cell-Free Activity Assay (Cell-Free IC50)
(§1) The assay is based on a coupling reaction with Pyrophosphatase: ACSS2 is converting ATP+CoA+Acetate=>AMP+pyrophosphate+Acetyl-CoA (Ac-CoA). Pyrophosphatase converts pyrophosphate, a product of the ACSS2 reaction, to phosphate which can be detected by measuring the absorbance at 620 nm after incubation with the Biomol green reagent (Enzo life Science, BML-AK111).
(§2) Cell Free IC50 Determination:
(§3) 10 nM of human ACSS2 protein (OriGene Technologies, Inc) was incubated for 90 minutes at 37 C with various compounds' concentrations in a reaction containing 50 mM Hepes pH 7.5, 10 mM DTT, 90 mM KCl, 0.006% Tween-20, 0.1 mg/ml BSA, 2 mM MgCl2, 10 μM CoA, 5 mM NaAc, 300 μM ATP and 0.5 U/ml Pyrophosphatase (Sigma). At the end of the reaction, Biomol Green was added for 30 minutes at RT and the activity was measured by reading the absorbance at 620 nm. IC50 values were calculated using non-linear regression curve fit with 0% and 100% constrains (CDD Vault, Collaborative Drug Discovery, Inc.).

human ACSS1 protein = molecular target: T2, human ACSS1 protein (Homo sapiens, UniProt Q9NUB1); test: ACSS1 cell-free activity assay (pyrophosphatase-coupled, Biomol green); format: biochemical; conditions: 5 nM human ACSS1, 30 minutes at room temperature, absorbance at 620 nm
T2 construct: purchased MyBioSource
T2 sequence (Q9NUB1 38-689): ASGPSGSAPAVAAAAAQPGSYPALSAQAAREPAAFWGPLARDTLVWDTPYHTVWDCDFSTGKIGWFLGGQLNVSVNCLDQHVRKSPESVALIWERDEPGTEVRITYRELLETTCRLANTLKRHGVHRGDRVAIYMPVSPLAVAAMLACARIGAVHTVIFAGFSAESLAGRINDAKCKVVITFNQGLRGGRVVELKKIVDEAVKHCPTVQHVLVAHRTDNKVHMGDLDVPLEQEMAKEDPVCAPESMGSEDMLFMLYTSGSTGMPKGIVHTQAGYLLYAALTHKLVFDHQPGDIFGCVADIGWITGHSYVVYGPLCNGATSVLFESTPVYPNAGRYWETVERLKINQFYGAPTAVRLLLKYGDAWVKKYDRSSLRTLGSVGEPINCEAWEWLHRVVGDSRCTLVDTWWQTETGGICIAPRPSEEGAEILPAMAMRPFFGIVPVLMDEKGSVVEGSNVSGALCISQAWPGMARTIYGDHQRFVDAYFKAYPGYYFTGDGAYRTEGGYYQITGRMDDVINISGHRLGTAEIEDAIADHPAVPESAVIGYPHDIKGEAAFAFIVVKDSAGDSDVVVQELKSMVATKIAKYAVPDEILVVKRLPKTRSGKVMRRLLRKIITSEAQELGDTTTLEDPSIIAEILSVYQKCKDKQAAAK
Experimental: ACSS1 Cell-Free Activity Assay (Cell-Free IC50)
as §1, with “ACSS1” for “ACSS2”
as §2
as §3, with “5 nM” for “10 nM”, “human ACSS1” for “human ACSS2”, “protein (MyBioSource)” for “protein (OriGene Technologies, Inc)”, “for 30” for “for 90”, “at room temperature” for “at 37 C”, “MgCl2, 15” for “MgCl2, 10”

[1] = molecular target: T3, ACSS2 in MDA-MB-468 cells (Homo sapiens, UniProt Q9NR19); test: Cellular fatty-acid IC50: 13C-acetate incorporation into fatty acids (palmitate), LC-MS; format: cell-based; conditions: hypoxic conditions (1% O2), 75% charcoal stripped serum, 5 hours, 13C-acetate into palmitate, read-out: Cellular Fatty-acid IC50 High Serum MDA468
T3 construct: endogenous in cells; host or cells: MDA-MB-468 cells, hypoxia (1% O2)
Experimental: Cellular Fatty-Acid IC50 Determination:
The cellular activity of ACSS2 was measured in MDA-MB-468 cells under hypoxic conditions by tracing the incorporation of labelled carbons from ^13C-acetate into newly synthesized fatty acids. The assay was performed using 75% charcoal stripped serum (high serum conditions).
MDA-MB-468 cells were seeded in 12-well plates (0.35×10^6 cells per well) in plating medium (Dulbecco's Modified Eagle Medium containing 25 mM D-glucose, 1 mM sodium pyruvate, 10% v/v fetal bovine serum, and 2 mM glutamine) and incubated for 24 hours under hypoxic conditions (1% O2).
The next day, tracing medium containing DMEM (01-057-1A) containing 75% charcoal stripped serum (Biological industries 04-201-1A), 3.5 μg/mL Biotin (Sigma-Aldrich B4639), 1 mM Pyruvate, 5.5 mM Glucose, 0.65 mM Glutamine and 0.5 mM ^13C-Acetate (Sigma-Aldrich #282014) with serial dilutions of the compounds in the range of 0.000512-1000 nM were prepared. The plating medium was replaced with 1 mL tracing medium plus compounds and the cells were incubated for 5 hours under hypoxic conditions (1% O2). Plating medium in control wells (without cells or without compounds) was replaced with 1 mL tracing medium containing 0.01% v/v DMSO.
The level of ^13C-acetate incorporation into fatty acids (palmitate) was measured by LC-MS analysis and IC50 as described below:
Sample Preparation for LC-MS
• a) Cells were washed twice with cold phosphate buffered saline (PBS), scraped into 0.5 mL EDTA pH 8.0, and transferred into 1.1 mL V-shaped HPLC glass tubes. • b) The cell suspensions were centrifuged for 5 minutes at 400×g, 4° C. and the supernatants were removed. • c) Cell pellets were frozen at −80° C.
• d) Cell pellets were resuspended in 0.2 mL of 80% v/v ethanol in water containing 0.02 M NaOH in 1.1 ml glass (v-bottom) HPLC vials. • e) The vials were closed tight and incubated at 66° C. for 60 minutes. • f) Acetonitrile containing 2% v/v formic acid (150 μL) was added to each vial and the mixtures were transferred to Eppendorf tubes for centrifugation at 17 000×g for 20 minutes. • g) Supernatants were transferred to LC-MS vials.
The relative palmitate concentration was measured by LC-MS in reconstructed selected ion monitoring (RSIM) mode and negative ion mode. Samples were analyzed on a Phenomenex Kinetex 2.6 μm XB-C18 150×2.1 mm column at 45° C. (0.4 mL/minute flow rate) using: • a) A gradient from 15% A/85% C to 100% C for 0 to 2 minutes (A: water containing 5% v/v acetonitrile, 10 mM ammonium acetate, and 10 mM acetic acid; C: a mixture of 50% v/v acetonitrile and 50% v/v methanol). • b) Isocratic flow (100% C) for 2 to 5 minutes. • c) Equilibration in isocratic conditions (15% A/85% C) for 5 to 8 minutes.
Palmitate was eluted at approximately 3.4 minutes.
The percent inhibition was calculated relative to the sample without compound and after background deduction. IC50 values were calculated using non-linear regression curve fit analysis with 0% and 100% constraints (CDD Vault, Collaborative Drug Discovery, Inc. or GraphPad Prism).
The inhibitory activities of each compound against ACSS2 in MDA-MB-468 cells under high serum conditions, as determined by ^13C-acetate incorporation into fatty acids (palmitate), are presented in Table 2.

T3 sequence (Q9NR19 whole entry): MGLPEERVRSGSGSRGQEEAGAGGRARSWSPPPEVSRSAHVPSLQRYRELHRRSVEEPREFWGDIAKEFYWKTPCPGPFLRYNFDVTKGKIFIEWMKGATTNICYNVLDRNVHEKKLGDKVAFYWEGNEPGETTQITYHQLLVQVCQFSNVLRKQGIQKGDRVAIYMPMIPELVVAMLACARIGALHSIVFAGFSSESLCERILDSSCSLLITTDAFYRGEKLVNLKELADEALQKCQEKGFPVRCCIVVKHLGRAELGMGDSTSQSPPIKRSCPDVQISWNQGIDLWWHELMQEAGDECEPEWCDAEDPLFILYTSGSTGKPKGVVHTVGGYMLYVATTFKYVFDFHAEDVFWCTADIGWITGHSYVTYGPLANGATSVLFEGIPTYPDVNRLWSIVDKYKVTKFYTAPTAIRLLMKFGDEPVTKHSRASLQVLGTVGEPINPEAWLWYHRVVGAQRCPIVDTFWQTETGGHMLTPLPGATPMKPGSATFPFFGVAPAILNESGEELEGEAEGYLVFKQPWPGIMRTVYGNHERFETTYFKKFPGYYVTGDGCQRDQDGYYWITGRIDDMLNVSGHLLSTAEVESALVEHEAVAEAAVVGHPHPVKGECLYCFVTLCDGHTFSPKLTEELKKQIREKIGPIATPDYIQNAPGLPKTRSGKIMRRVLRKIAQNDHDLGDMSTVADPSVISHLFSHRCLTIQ
T1 sequence (Q9NR19 whole entry): as above

| SMILES | IC50 (human ACSS2 protein) | ACSS1 Biochemical IC50 (nM) (human ACSS1 protein) | IC50 [1] |
| --- | --- | --- | --- |
| CCC(F)(F)c1cccc(NC(=O)c2c(C)[nH]c(-c3ccc(OC)c(-c4ncccc4C)c3)[n+]2[O-])c1 [Compound 100, 4-((3-(1,1-difluoropropyl)phenyl)carbamoyl)-2-(4-methoxy-3-(3-methylpyridin-2-yl)phenyl)-5-methyl-1H-imidazole 3-oxide] |  | Inactive | < 20 nM |
| CCC(F)(F)c1cccc(NC(=O)c2c(C)[nH]c(-c3ccc(OC)cc3)[n+]2[O-])c1 [Compound 101, 4-((3-(1,1-difluoropropyl)phenyl)carbamoyl)-2-(4-methoxyphenyl)-5-methyl-1H-imidazole 3-oxide] |  | Inactive | 20 to 50 nM |
| COc1ccc(-c2[nH]c(C)c(C(=O)Nc3cccc(C4(C(F)(F)F)CC4)c3)[n+]2[O-])cc1-c1c(C)cccc1C [Compound 206, 2-(6-methoxy-2′,6′-dimethyl-[1,1′-biphenyl]-3-yl)-5-methyl-4-((3-(1-(trifluoromethyl)cyclopropyl)phenyl)carbamoyl)-1H-imidazole 3-oxide] | > 30 nM | Inactive |  |
| COCCN(C)C(=O)c1cccc(NC(=O)c2c(C)[nH]c(-c3ccc(OC)c(-c4c(C)cccc4C)c3)[n+]2[O-])c1 [Compound 141, 2-(6-methoxy-2′,6′-dimethyl-[1,1′-biphenyl]-3-yl)-4-((3-((2-methoxyethyl)(methyl)carbamoyl)phenyl)carbamoyl)-5-methyl-1H-imidazole 3-oxide] | > 30 nM | Inactive |  |
| CCC(F)(F)c1cccc(NC(=O)c2c(C)[nH]c(-c3ccc(OC)c(C4CCCCC4)c3)[n+]2[O-])c1 [Compound 145, 2-(3-cyclohexyl-4-methoxyphenyl)-4-((3-(1,1-difluoropropyl)phenyl)carbamoyl)-5-methyl-1H-imidazole 3-oxide] | > 30 nM | Inactive |  |
| CCC(F)(F)c1cccc(NC(=O)c2c(C)[nH]c(-c3ccc(OC)c(-c4c(C)cc(CCc5ccccc5)cc4C)c3)[n+]2[O-])c1 [Compound 154, 4-((3-(1,1-difluoropropyl)phenyl)carbamoyl)-2-(6-methoxy-2′,6′-dimethyl-4′-phenethyl-[1,1′-biphenyl]-3-yl)-5-methyl-1H-imidazole 3-oxide] | > 30 nM | Inactive |  |
| CCC(F)(F)c1cccc(NC(=O)c2c(C)n(COP(=O)(O)O)c(-c3ccc(OC)c(-c4c(C)cccc4C)c3)[n+]2[O-])c1 [Compound 193, 4-((3-(1,1-difluoropropyl)phenyl)carbamoyl)-2-(6-methoxy-2′,6′-dimethyl-[1,1′-biphenyl]-3-yl)-5-methyl-1-((phosphonooxy)methyl)-1H-imidazole 3-oxide] | > 30 nM | Inactive |  |
| Cc1cccc(C)c1-c1cc(Br)cc(-c2[nH]c(C)c(C(=O)Nc3cccc(C(F)(F)C4CC4)c3)[n+]2[O-])c1 [Compound 136, 2-[3-bromo-5-(2,6-dimethylphenyl)phenyl]-N-[3-[cyclopropyl(difluoro)methyl]phenyl]-5-methyl-3-oxido-1H-imidazol-3-ium-4-carboxamide] | 1 to 30 nM | Inactive |  |

Further lines, results first:

| IC50 (human ACSS2 protein) | ACSS1 Biochemical IC50 (nM) (human ACSS1 protein) | IC50 [1] | SMILES |
| --- | --- | --- | --- |
| < 1 nM | Inactive | < 20 nM | CNC(=O)c1cccc(NC(=O)c2c(C)[nH]c(-c3ccc(OC)c(-c4c(F)cccc4F)c3)[n+]2[O-])c1 [Compound 184, 2-(2′,6′-difluoro-6-methoxy-[1,1′-biphenyl]-3-yl)-5-methyl-4-((3-(methylcarbamoyl)phenyl)carbamoyl)-1H-imidazole 3-oxide] |
| < 1 nM | Inactive | 20 to 50 nM | COc1cc(-c2c(C)cccc2C)cc(-c2[nH]c(C)c(C(=O)Nc3cccc(C(F)(F)C4CC4)c3)[n+]2[O-])c1 [Compound 131, 4-((3-(cyclopropyldifluoromethyl)phenyl)carbamoyl)-2-(5-methoxy-2′,6′-dimethyl-[1,1′-biphenyl]-3-yl)-5-methyl-1H-imidazole 3-oxide] |
| < 1 nM | Inactive | 20 to 50 nM | Cc1cccc(C)c1-c1cc(-c2[nH]c(C)c(C(=O)Nc3cccc(C(F)(F)C4CC4)c3)[n+]2[O-])ccc1OC(F)F [Compound 113, N-[3-[cyclopropyl(difluoro)methyl]phenyl]-2-[4-(difluoromethoxy)-3-(2,6-dimethylphenyl)phenyl]-5-methyl-3-oxido-1H-imidazol-3-ium-4-carboxamide] |
| 1 to 30 nM | Inactive |  | CCC(F)(F)c1cccc(NC(=O)c2c(C)[nH]c(-c3ccc(C(C)C)c(-c4c(C)cccc4C)c3)[n+]2[O-])c1 [Compound 117, 4-((3-(1,1-difluoropropyl)phenyl)carbamoyl)-2-(6-isopropyl-2′,6′-dimethyl-[1,1′-biphenyl]-3-yl)-5-methyl-1H-imidazole 3-oxide] |
